Reference: PubChem BioAssay (NCI)
“And” between values parts separate entries of the source, which are not always exact repeats. Equal entries are not always repeated.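 Dose response: 5 concentrations. Exposure: 48 h. Format: 96-well plates. Endpoint: linear interpolation; highest concentration if not reached. Here, GI50 denotes the concentration required for 50% inhibition of growth. TGI marks complete inhibition of growth.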

How the values were obtained:
Test in all cases: DTP human tumour cell line panel, 48 h
[1] = tested on: HT29 colon
[2] = tested on: NCI-H460 lung
[3] = tested on: SK-OV-3 ovarian
[4] = tested on: SF-268 CNS
[5] = tested on: NCI/ADR-RES ovarian
[6] = tested on: COLO 205 colon
[7] = tested on: DU-145 prostate
[8] = tested on: NCI-H23 lung
[9] = tested on: HOP-62 NSCLC
[10] = tested on: MDA-MB-435

SMILES	GI50 [1]	TGI [1]	GI50 [2]	TGI [2]	GI50 [3]	TGI [3]	GI50 [4]	TGI [4]	GI50 [5]	TGI [5]	GI50 [6]	TGI [6]	GI50 [7]	TGI [7]	GI50 [8]	TGI [8]	GI50 [9]	TGI [9]	GI50 [10]	TGI [10]
Cc1cc(Cl)ccc1NC(=O)NC(C)(C)COC(=O)Nc1cccc(Cl)c1	7.42 µM	39.4 µM	4.86 µM	36.7 µM	22.5 µM	96 µM	13.5 µM	78 µM	4.12 µM	> 100 µM	7.18 µM	20.2 µM	11.2 µM	> 100 µM	3.66 µM	28.4 µM	14.1 µM	50.5 µM	10.9 µM	49.4 µM
O=[N+]([O-])c1ccc(NC(=S)N/N=C(\c2ccccc2)c2ccccn2)cc1	1.56 µM	3.12 µM and 2.78 µM	1.47 µM	3.36 µM and 11.9 µM	2.28 µM	4.09 µM and 2.95 µM	–	1.9 µM and 1.84 µM	–	5.12 µM	0.0423 µM	2.52 µM and 3.88 µM	–	2.84 µM and 4.03 µM	1.71 µM	3.53 µM and 13.3 µM	1.3 µM	2.98 µM and 1.62 µM	–	3.15 µM and 3.17 µM
O=S1(=O)CC(Br)C(Br)C1 (stereo not drawn)	3.71 µM	11.3 µM	20.4 µM	61.8 µM	23.2 µM	90 µM	21.5 µM	> 100 µM	5.26 µM	> 100 µM	1.61 µM	3.17 µM	4.21 µM	15.9 µM	7.88 µM	26 µM	12.7 µM	27.6 µM	4.16 µM	18.6 µM
CC(C)=CCC/C(C)=C/[C@H]1OC(=O)CC12C[C@H](O)C=CC2=O (stereo partly drawn)	0.469 µM	–	0.692 µM	2.21 µM	1.44 µM	3.19 µM	0.922 µM	2.65 µM	0.553 µM	2.47 µM	1.1 µM	3.72 µM	0.529 µM	2.18 µM	0.308 µM	1.04 µM	0.856 µM	2.43 µM	0.458 µM	1.64 µM
Cc1c(N)nc(C(CC(N)=O)NCC(N)C(N)=O)nc1C(=O)NC(C(=O)NC(C)C(O)C(C)C(=O)NC(C(=O)NCCc1nc(-c2nc(C(=O)NCCCNCCCCN)cs2)cs1)C(C)O)C(OC1OC(CO)C(O)C(O)C1OC1OC(CO)C(O)C(OC(N)=O)C1O)c1cnc[nH]1 (stereo not drawn)	50.8 µg/mL	> 10 µM	0.199 µg/mL and 0.171 µg/mL	> 10 µM	8.67 µg/mL	> 10 µM	2.55 µg/mL and 0.324 µg/mL	23.8 µg/mL and > 10 µM	3.44 µg/mL and 1.4 µg/mL	17 µg/mL	8.7 µg/mL and 4.7 µg/mL	> 10 µM	2.17 µg/mL and 11.3 µg/mL	48 µg/mL	0.251 µg/mL	11.1 µg/mL and > 10 µM	0.137 µg/mL	–	15.9 µg/mL	–
O=c1[nH]cnc2nc(-c3ccc(N(CCCl)CCCl)cc3)[nH]c12	> 100 µM	> 100 µM	4.51 µM	> 100 µM	5.17 µM	42.8 µM	28.6 µM	> 100 µM	13.1 µM	> 100 µM	> 100 µM	> 100 µM	15.9 µM	> 100 µM	31.7 µM	> 100 µM	10.7 µM	63.8 µM	3.21 µM	> 100 µM
N#Cc1ncc(N2C(=O)C3(CCC3)N(c3ccc(OC4CCNCC4)nc3)C2=S)cc1C(F)(F)F	8.92 µM	29.9 µM	16.8 µM	31.7 µM	60.5 µM	> 100 µM	18.6 µM	43.2 µM	25.2 µM	81.9 µM	14.2 µM	28.3 µM	18.8 µM	41.1 µM	13.9 µM	32.1 µM	25.2 µM	67.4 µM	15.8 µM	31.3 µM
C=Cc1cnc([N+](=O)[O-])n1C	–	> 100 µM	–	> 100 µM	–	> 100 µM	–	> 100 µM	–	> 100 µM	–	> 100 µM	–	> 100 µM	–	> 100 µM	–	> 100 µM	–	> 100 µM
Cc1ccc(S(=O)(=O)c2ccsc2N)cc1	> 100 µM	> 100 µM	> 100 µM	> 100 µM	> 100 µM	> 100 µM	97.7 µM	> 100 µM	> 100 µM	> 100 µM	> 100 µM	> 100 µM	> 100 µM	> 100 µM	> 100 µM	> 100 µM	> 100 µM	> 100 µM	> 100 µM	> 100 µM
Cc1nn2c(/C=C3\C(=O)Nc4ccccc43)c(C)nc2s1	5.32 µM	> 100 µM	13.3 µM	> 100 µM	34.8 µM	> 100 µM	54.6 µM	> 100 µM	6.3 µM	99 µM	5.33 µM	63.4 µM	75.8 µM	> 100 µM	35.4 µM	> 100 µM	15.7 µM	> 100 µM	2.85 µM	> 100 µM
CC(C)(O)CCC(O)C(C)(O)C1CCC2(O)C3=CC(=O)C4(O)CC(O)C(O)CC4(C)C3CCC12C (stereo not drawn) (tested in a mixture with another compound)	–	> 100 µM	–	> 100 µM	–	> 100 µM	–	> 100 µM	–	> 100 µM	–	> 100 µM	–	> 100 µM	–	> 100 µM	–	> 100 µM	–	> 100 µM
C[C@]12CC[C@H]3[C@@H](CCC4=C[C@@H](OC5OCC(OC6OC(CO)C(O)C(O)C6O)C(O)C5O)CC[C@@]43C=O)[C@@]1(O)CCC2C1=CC(=O)OC1 (stereo partly drawn)	–	5.35 µM	–	0.534 µM	–	3.75 µM	–	1.64 µM	–	3.28 µM	–	3.25 µM	–	1.44 µM	–	1.08 µM	–	1.84 µM	–	3.71 µM
O=c1oc2cc(OS(=O)(=O)c3ccccc3)ccc2c2c1CCCCC2	2.84 µM	> 100 µM	4.27 µM	> 100 µM	> 100 µM	> 100 µM	> 100 µM	> 100 µM	4.53 µM	> 100 µM	3.51 µM	> 100 µM	> 100 µM	> 100 µM	7.27 µM	> 100 µM	> 100 µM	> 100 µM	9.44 µM	> 100 µM
